Data set [1] concerns the target T1, GAL2R (Homo sapiens, UniProt O43603).
T1 sequence (O43603 1-387): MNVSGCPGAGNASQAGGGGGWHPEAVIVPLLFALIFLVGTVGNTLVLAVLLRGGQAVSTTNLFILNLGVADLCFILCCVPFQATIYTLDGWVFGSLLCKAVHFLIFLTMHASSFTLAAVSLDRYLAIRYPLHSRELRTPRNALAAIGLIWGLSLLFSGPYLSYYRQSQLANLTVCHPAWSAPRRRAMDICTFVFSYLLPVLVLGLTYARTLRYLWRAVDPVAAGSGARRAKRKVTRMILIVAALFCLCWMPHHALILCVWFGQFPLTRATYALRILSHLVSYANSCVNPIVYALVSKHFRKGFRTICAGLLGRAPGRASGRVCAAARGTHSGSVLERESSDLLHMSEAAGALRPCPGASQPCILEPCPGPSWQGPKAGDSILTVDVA
Kind of data set: Fluo-4 Direct calcium assay (Ca efflux) in HEK293 cells overexpressing GAL2R. The data set is classed as cell-based. Conditions: Table 3; HEK293 cells stably overexpressing GAL2R; Fluo-4, from 10 µM; (average) ratio, (n) in cell = number of assays; NA = ratio above 1000.

A short description of data set [2]: In vitro stability in rat serum. The data set is classed as in vitro ADME. The following applies: rat, serum, pH 7.4. The procedure: At various time points (0, 30, 90, 270, and 1410 min), 180 µl of samples were quenched with 10 µl 10% TFA and 20 µl 100% ACN. Samples were centrifuged and kept on ice. The amount of full-length peptides in the serum was analyzed using a C12 column (C12 RP 250 × 4.60 mm column, Phenomenex) on a JASCO HPLC system and applying a gradient of 10–90% ACN in 0.1% TFA for 45 min. Peptides were detected at 280 nm. A280 areas in chromatograms of the corresponding GAL-(1–15) and M89b full-length peptide peaks were used to determine the amount of peptide left after incubation with 5% rat serum at the different time points. Peptide peaks were determined using JASCO-Borwin Chromatography software (v1.50).

Data set [3] deals with T1, GAL2R. Description: PathHunter eXpress β-arrestin recruitment assay, GAL2R. The data set is classed as cell-based. More on the design: expressed in transfected cells. The following applies: Table 3; CHO-K1 cells co-expressing GAL2R and β-arrestin 2; 10 µM to 5 nM; (average) ratio, (n) in cell = number of assays; NA = ratio above 1000. (In general: Activated receptors often draw arrestin, which recruitment assays turn into a signal.)

The target of data set [4] is T2, GAL1R (Homo sapiens, UniProt P47211).
T2 sequence (P47211 1-349): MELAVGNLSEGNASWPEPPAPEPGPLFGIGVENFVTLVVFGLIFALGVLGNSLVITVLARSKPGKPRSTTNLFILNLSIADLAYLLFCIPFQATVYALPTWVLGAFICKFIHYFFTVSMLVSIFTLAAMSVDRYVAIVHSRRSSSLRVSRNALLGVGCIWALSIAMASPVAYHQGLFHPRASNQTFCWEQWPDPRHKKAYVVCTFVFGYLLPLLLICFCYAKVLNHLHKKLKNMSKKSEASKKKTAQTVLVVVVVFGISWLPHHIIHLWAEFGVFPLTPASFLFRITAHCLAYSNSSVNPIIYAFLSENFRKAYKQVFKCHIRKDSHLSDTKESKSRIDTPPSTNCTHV
Description: Label-free dynamic mass redistribution assay, SY5Y-R1 cells. In kind it is cell-based. Further details: expressed in transfected cells. The following applies: GAL1R-expressing SH-SY5Y cells; 1.6 nM to 5 µM. As for the experimental part: SH-SY5Y cells stably expressing low levels of either human GAL1R (SY5Y-R1) or GAL2R (SY5Y-R2) and HEK293 cells expressing human GAL3R (HEK-R3) were seeded in EnSpire LFC-[…] well plates (Perkin Elmer) at a concentration of 12,000 cells per well and cultured overnight at 37 °C and 5% CO2. The medium was aspired, and the cells were washed four times with Hank’s balanced salt solution (HBSS) (+ calcium, + magnesium) supplemented with HEPES (20 mM), and the final volume was adjusted to 30 µl per well. The plate was allowed to equilibrate to assay temperature for 1 h in the EnSpire multimode reader (Perkin Elmer). Galanin-(1–30) (GL Biochem) was dissolved and diluted in water. […] A baseline read was first generated by taking 4 measurements before ligands were added. The plate was measured between 30 and 70 repeats, and each treatment was performed in triplicate. […] EC50 values were calculated using Prism 8.2.0 (GraphPad Software Inc.). The values are provided as means of all independent experiments.

Data set [5] concerns the target T2, GAL1R. Kind of data set: SRE luciferase reporter assay, GAL1R-transfected HEK293 Gqi cells. The following applies: transiently transfected HEK293 Gqi cells; up to 10 µM, 5 h.

Numbered stars: 1 amine (or outer) side, 2 acyl side, 3 side chain; on linkers, the order of the positions; unused ones are H or OH. Bridge positions count the residues as written; N and C are the ends. Square brackets hold non-standard residues; d marks the D form. Peptide text beside a SMILES is read from it. dAbu(3S-yl) = C[C@@H]([C@@H](N[*:1])C(=O)[*:2])[*:3]; pGlu = O=C1CC[C@@H](C(=O)O)N1 Some results are limits rather than exact numbers.

As to `CC(C)C[C@H](NC(=O)[C@H](CC(C)C)NC(=O)[C@H](Cc1ccc(O)cc1)NC(=O)CNC(=O)[C@H](C)NC(=O)[C@H](C)NC(=O)[C@H](CC(N)=O)NC(=O)[C@H](CC(C)C)NC(=O)[C@H](CC(N)=O)NC(=O)[C@H](Cc1c[nH]c2ccccc12)NC(=O)[C@@H]1CCC(=O)N1)C(=O)N[C@@H](C)C(=O)N[C@H]1C(=O)N[C@@H](Cc2c[nH]cn2)C(=O)N[C@@H](C)C(=O)N[C@H](C(=O)NCC(=O)O)CS[C@H]1C` [Variant M89b, G1pE-T3N-S6A-G12A-methyllanthionine[13–16]-galanin-(1–17)] ([pGlu]WNLNAAGYLLA[dAbu(3S-yl)]HACG-OH; thioether 13-16; C-terminus assumed), the “EC50 ratios to Gal-(1-15), GAL2R Ca-efflux” value at GAL2R [1] is reported as 1.4 (3). In addition, in data set [2], the half-life (commonly the time in which the quantity being followed falls by half) at 10 µM was more than 24 h; the metabolised at 23.5 h, 10 µM was found to be 40%; the share remaining (as a rule, the share of the starting amount still present when the sample was taken) at 23.5 h, 10 µM was approximately 60%. In addition, the “EC50 ratios to Gal-(1-15), GAL2R ß-Arrestin” value at GAL2R [3] was 1.7 (3). Further, the “Stimulation of GAL1R, DMR in SY5YR1 cells” value on GAL1R [4] was “stimulate GAL2R only, not GAL1R”. In addition, the “Stimulation of GAL1R, luciferase reporter” value on GAL1R [5] is given as “inability to stimulate”.

The record behind these values is publication PMC8804135 (Neurotherapeutics, 2021).
